Key:
[1] = molecular target: MNK2a (pre-activated GST-MNK2a) (Homo sapiens (Human), UniProt Q9HBH9); assay: MNK2a in vitro kinase assay (assay 1), ADP-Glo; assay type: biochemical; conditions: read-out: Mnk2 IC50
Description: A. MNK2a In Vitro Kinase Assay (Assay 1)
The inhibition of kinase activity of MNK2a was assessed using pre-activated GST-MNK2a. The white, 384-well OptiPlate F plates were purchased from PerkinElmer. The ADP-Glo Kinase Assay (including ultra pure ATP) was purchased from Promega (V9103). Activated MNK2a was obtained as described in WO2011/104340. […] ID No. 5 of WO 2011/104340 by the C-terminal —CONH2 group, was purchased from Thermo Fisher Scientific. All other materials were of highest grade commercially available. Compounds are tested in either serial dilutions or single dose concentrations. The compound stock solutions are 10 mM in 100% DMSO The serial compound dilutions are prepared in 100% DMSO followed by 1:27.3 intermediate dilution in assay buffer. The final DMSO concentration in assay will be <3%.
In the 384-well plates 3 μl of test compound from the intermediate dilution is mixed with 4 μl of the activated MNK2 enzyme (final concentration of 10 nM) and 4 μl of the peptide (final concentration of 25 μM)/ultra pure ATP (final concentration of 20 μM), all dissolved in assay buffer. This step is followed by an incubation time of 90 min, then 10 μl of ADP Glo reagent are added, followed by 40 min of incubation. Then 20 μl of kinase detection reagent are admixed. The plates are sealed and after an incubation period of 30 min, the luminescence signal is measured in an Envision reader to determine the amount of produced ADP. All incubation steps are performed at room temperature.
The assay buffer consists of 20 mM HEPES, 2 mM DTT, 0.01% BSA, 20 mM MgCl2 and 0.1% Pluronic F-127.
The luminescent signal generated is proportional to the ADP concentration produced and is correlated with activated MNK2 activity. The analysis of the data is performed by the calculation of the percentage of ATP consumption of activated MNK2 in the presence of the test compound compared to the consumption of ATP in the presence of activated MNK2 without compound. (RLU(sample)−RLU(low control))*100/(RLU(high value)−RLU(low control))
[RLU=Relative Luminescence Units]
Values of more than 100% CTL are normally related to compound/sample specific physico-chemical properties (e.g. solubility, light absorbance, fluorescence).
IC50 values based on dose response curves are calculated with the AssayExplorer software.

[2] = molecular target: MNK1a (pre-activated GST-MNK1a) (Homo sapiens (Human), UniProt Q9BUB5); assay: MNK1 in vitro kinase assay (assay 2), Z'-LYTE; assay type: biochemical; conditions: for inhibition at 1 µM: compound concentration of 1 μM, read-out: Mnk1 % Inh
Source text: B. MNK1 In Vitro Kinase Assay (Assay 2)
MNK1 Data can be obtained from the MNK1 Z′-LYTE® assay. The MNK1 Z′-LYTE® screening protocol and assay conditions are also described on www.invitrogen.com.
The assay is described as follows:
The Z′-LYTE® biochemical assay employs a fluorescence-based, coupled-enzyme format and is based on the differential sensitivity of phosphorylated and non-phosphorylated peptides to proteolytic cleavage. The peptide substrate is labeled with two fluorophores—one at each end—that make up a FRET pair.
In the primary reaction, the kinase transfers the gamma-phosphate of ATP to a single tyrosine, serine or threonine residue in a synthetic FRET-peptide. In the secondary reaction, a site-specific protease recognizes and cleaves non-phosphorylated FRET-peptides. Phosphorylation of FRET-peptides suppresses cleavage by the Development Reagent. Cleavage disrupts FRET between the donor (i.e., coumarin) and acceptor (i.e., fluorescein) fluorophores on the FRET-peptide, whereas uncleaved, phosphorylated FRET-peptides maintain FRET. A ratiometric method, which calculates the ratio (the Emission Ratio) of donor emission to acceptor emission after excitation of the donor fluorophore at 400 nm, is used to quantitate reaction progress, as shown in the equation below. Emission Ratio=Coumarin Emission(445 nm)/Fluorescein Emission(520 nm)
The inhibition of kinase activity of MNK1a was assessed using pre-activated GST-MNK1a. The 2×MKNK1 (MNK1) mixture is prepared in 50 mM HEPES pH 7.5, 0.01% BRIJ-35, 10 mM MgCl2, 4 mM MnCl2, 1 mM EGTA, 2 mM DTT. The final 10 μL Kinase Reaction consists of 13.5-54 ng MKNK1 (MNK1) and 2 μM Ser/Thr 07 in 50 mM HEPES pH 7.5, 0.01% BRIJ-35, 10 mM MgCl2, 2 mM MnCl2, 1 mM EGTA, 1 mM DTT. After the 1 hour Kinase Reaction incubation, 5 μL of a 1:32768 dilution of Development Reagent A is added.
The Test Compounds are screened in 1% DMSO (final) in the well.
All Peptide/Kinase Mixtures are diluted to a 2×working concentration in the MNK1 Kinase Buffer.
All ATP Solutions are diluted to a 4×working concentration in Kinase Buffer (50 mM HEPES pH 7.5, 0.01% BRIJ-35, 10 mM MgCl2, 1 mM EGTA).
Development Reagent Solution:
The Development Reagent is diluted in Development Buffer
Bar-coded Corning, low volume NBS, 384-well plate (Corning Cat. #3676)
1. 2.5 μL—4×Test Compound
2. 5 μL—2×Peptide/Kinase Mixture
5. 60-minute Kinase Reaction incubation at room temperature
6. 5 μL—Development Reagent Solution
8. 60-minute Development Reaction incubation at room temperature
9. Read on fluorescence plate reader and analyze the data
The following equations are used for each set of data points:
Correction for Background Fluorescence: FISample−FITCFI Ctl Emission Ratio (using values corrected for background fluorescence):Coumarin Emission (445 nm)/Fluorescein Emission (520 nm)
% Phosphorylation (% Phos): 1−((Emission Ratio×F100%)−C100%)/((C0%−C100%)+[Emission Ratio×(F100%−F0%)])*100
% Inhibition: 1−(% PhosSample/% Phos0% Inhibition Ctl)*100 FI=Fluorescence Intensity C100%=Average Coumarin emission signal of the 100% Phos. Control C0%=Average Coumarin emission signal of the 0% Phos. Control F100%=Average Fluorescein emission signal of the 100% Phos. Control F0%=Average Fluorescein emission signal of the 0% Phos. Control
SelectScreen® Kinase Profiling Service uses XLfit from IDBS. The dose response curve is curve fit to model number 205 (sigmoidal dose-response model).

MNK1a (pre-activated GST-MNK1a), sequence (Q9BUB5 other isoform, or with tags, fused parts or gaps): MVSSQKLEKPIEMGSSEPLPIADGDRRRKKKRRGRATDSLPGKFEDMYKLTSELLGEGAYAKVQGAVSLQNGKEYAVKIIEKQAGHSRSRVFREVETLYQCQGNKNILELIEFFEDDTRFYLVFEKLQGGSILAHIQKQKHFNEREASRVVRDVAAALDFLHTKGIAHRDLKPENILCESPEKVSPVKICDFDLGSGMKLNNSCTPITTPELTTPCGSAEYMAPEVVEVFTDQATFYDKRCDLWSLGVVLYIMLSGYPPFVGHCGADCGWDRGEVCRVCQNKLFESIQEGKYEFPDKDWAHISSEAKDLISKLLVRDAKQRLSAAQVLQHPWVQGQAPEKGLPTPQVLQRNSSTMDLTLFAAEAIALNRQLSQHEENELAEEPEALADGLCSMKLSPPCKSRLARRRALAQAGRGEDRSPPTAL
MNK2a (pre-activated GST-MNK2a), sequence (Q9HBH9 whole entry): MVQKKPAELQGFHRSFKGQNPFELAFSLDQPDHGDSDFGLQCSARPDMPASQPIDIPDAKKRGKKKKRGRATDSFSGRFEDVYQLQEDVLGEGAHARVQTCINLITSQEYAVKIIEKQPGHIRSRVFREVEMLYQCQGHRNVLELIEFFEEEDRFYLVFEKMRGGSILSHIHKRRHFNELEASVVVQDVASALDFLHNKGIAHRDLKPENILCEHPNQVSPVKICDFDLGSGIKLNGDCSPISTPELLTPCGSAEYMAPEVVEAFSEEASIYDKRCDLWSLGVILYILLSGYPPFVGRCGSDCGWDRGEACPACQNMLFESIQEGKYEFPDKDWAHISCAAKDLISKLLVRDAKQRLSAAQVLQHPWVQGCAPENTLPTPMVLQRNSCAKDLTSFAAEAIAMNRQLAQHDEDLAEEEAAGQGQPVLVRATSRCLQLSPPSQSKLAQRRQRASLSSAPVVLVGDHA

| IC50 [1] [nM] | inhibition at 1 µM [2] [%] | IC50 [2] [nM] | SMILES |
| --- | --- | --- | --- |
| 2.5 | 106 | – | COc1c(N=S2(=O)CCCC2)cc2ncnc(Nc3ccc(F)cc3O[C@H](C)C(=O)N[C@@H](C)C(F)(F)F)c2c1C [Example 2.05] |
| 1.3 | 105 | – | COc1c(N=S2(=O)CCNCC2)cc2ncnc(Nc3ccc(F)cc3O[C@@H]3CO[C@@H]4CCO[C@@H]43)c2c1C [Example 2.30] |
| 2.3 | 97 | – | COc1c(N=S(C)(=O)C2CC2)cc2ncnc(Nc3ccc(F)cc3O[C@@H]3CO[C@@H]4CCO[C@@H]43)c2c1C (stereo partly shown) [Example 2.43] |
| 3.9 | – | 87 | COc1c(N=S2(=O)CCC2)cc2ncnc(Nc3cc4cn[nH]c4cc3OC(C)C)c2c1C [Example 2.27] |
| 2.5 | 98 | – | COc1c(N=S(C)(C)=O)cc2ncnc(Nc3ccc(F)cc3O[C@H]3CC[C@H](O)CC3)c2c1C [Example 2.22] |
| 4.1 | 88 | – | COc1c(N=S(C)(C)=O)cc2ncnc(Nc3ccc(F)cc3O[C@H](C)C(=O)N[C@@H](C)C(F)(F)F)c2c1C [Example 2.37] |
| 2.4 | – | 51 | Cc1c(OCCCN2CCCC2)c(N=S(C)(C)=O)cc2ncnc(Nc3ccc(F)cc3O[C@H](C)C(F)(F)F)c12 [Example 1.02] |
| 2.1 | – | 118 | Cc1c(OC2CCOC2)c(N=S(C)(C)=O)cc2ncnc(Nc3ccc(F)cc3O[C@H](C)C(F)(F)F)c12 (stereo partly shown) [Example 3.04] |
| 2.6 | – | 113 | COCCOc1c(N=S(C)(C)=O)cc2ncnc(Nc3ccc(F)cc3O[C@H](C)C(F)(F)F)c2c1C [Example 3.02] |
| 1.4 | 108 | – | COc1c(N=S2(=O)CCC2)cc2ncnc(Nc3ccc(F)cc3O[C@@H]3CO[C@@H]4CCO[C@@H]43)c2c1Cl [Example 2.59] |
| 1.6 | 106 | – | COc1c(N=S2(=O)CCCC2)cc2ncnc(Nc3ccc(F)cc3O[C@@H]3CO[C@@H]4CCO[C@@H]43)c2c1Cl [Example 2.33] |
| 1.2 | – | 52 | COc1c(N=S2(=O)CCC2)cc2ncnc(Nc3ccc(F)cc3O[C@@H]3CO[C@@H]4CCO[C@@H]43)c2c1C [Example 2.42] |
| 1.5 | – | 74 | COc1c(N=S2(=O)CCC2)cc2ncnc(Nc3ccc(F)cc3O[C@H](C)C(F)(F)F)c2c1C [Example 2.35] |
| 2 | – | 55 | COc1c(N=S(C)(C)=O)cc2ncnc(Nc3ccc(F)cc3O[C@H]3COC[C@@H]3O)c2c1C [Example 2.38] |
| 2.8 | 102 | – | COc1c(N=S(C)(=O)C(C)(C)C)cc2ncnc(Nc3ccc(F)cc3O[C@@H]3CO[C@@H]4CCO[C@@H]43)c2c1C (stereo partly shown) [Example 2.19] |
| 3.3 | 96 | – | COc1c(N=S2(=O)CCCC2)cc2ncnc(Nc3cccnc3O[C@@H]3CO[C@@H]4CCO[C@@H]43)c2c1C [Example 2.10] |

| IC50 [1] [nM] | inhibition at 1 µM [2] [%] | IC50 [2] [nM] | SMILES |
| --- | --- | --- | --- |
| 1.7 | 103 | – | COc1c(N=S(C)(C)=O)cc2ncnc(Nc3ccc(F)cc3O[C@@H]3CO[C@H]4[C@@H]3OC[C@H]4O)c2c1C [Example 2.13] |
| 3.8 | – | 57 | COc1c(N=S(C)(C)=O)cc2ncnc(Nc3cc4cn[nH]c4cc3OC(C)C)c2c1C [Example 2.20] |
| 2 | 94 | – | COc1c(N=S(C)(C)=O)cc2ncnc(Nc3ccc(F)cc3OC3CCOCC3)c2c1Cl [Example 2.34] |
| 2.1 | 96 | – | COc1c(N=S(C)(=O)C(C)C)cc2ncnc(Nc3ccc(F)cc3O[C@@H]3CO[C@@H]4CCO[C@@H]43)c2c1C (stereo partly shown) [Example 2.31] |
| 1.2 | 105 | – | COc1c(N=S2(=O)CCCC2)cc2ncnc(Nc3ccc(F)cc3O[C@@H]3CO[C@@H]4CCO[C@@H]43)c2c1C [Example 2.03] |
| 2.7 | 97 | – | COc1c(N=S2(=O)CCCC2)cc2ncnc(Nc3ccc(Cl)cc3O[C@H](C)C(=O)NCC(F)(F)F)c2c1C [Example 2.56] |
| 2.6 | 96 | – | COc1c(N=S(C)(C)=O)cc2ncnc(Nc3ccc(Cl)cc3O[C@H](C)C(=O)NCC(F)(F)F)c2c1C [Example 2.29] |
| 1.8 | – | 15 | COc1c(N=S2(=O)CCCC2)cc2ncnc(Nc3ccc(F)cc3O[C@@H]3CO[C@H]4[C@@H]3OC[C@H]4OC)c2c1C [Example 2.36] |
| 2 | – | 37 | COc1c(N=S2(=O)CCCC2)cc2ncnc(Nc3ccc(F)cc3O[C@H]3COC[C@@H]3O)c2c1C [Example 2.46] |
| 12.6 | – | 25 | COc1c(N=S(C)(C)=O)cc2ncnc(Nc3ccc(F)cc3O[C@@H]3CO[C@H]4[C@@H]3OC[C@@H]4F)c2c1C [Example 2.02] |
| 1.1 | – | 22 | COc1c(N=S2(=O)CCC2)cc2ncnc(Nc3ccc(F)cc3O[C@H]3CCOC3)c2c1C [Example 2.57] |
| 1.3 | – | 22 | COc1c(N=S2(=O)CCCC2)cc2ncnc(Nc3ccc(F)cc3O[C@H]3CCOC3)c2c1C [Example 2.48] |
| 1.6 | 91 | – | COc1c(N=S2(=O)CCCC2)cc2ncnc(Nc3ccc(F)cc3O[C@H](C)C(F)(F)F)c2c1C [Example 2.54] |
| 2 | – | 44 | COc1c(N=S(C)(C)=O)cc2ncnc(Nc3ccc(F)cc3O[C@H]3CCOC3)c2c1C [Example 2.50] |
| 5.5 | – | 162 | Cc1c(OCCCN2CCN(C)C(=O)C2)c(N=S(C)(C)=O)cc2ncnc(Nc3ccc(F)cc3O[C@H](C)C(F)(F)F)c12 [Example 1.01] |
| 2.4 | – | 38 | COc1c(N=S2(=O)CCC2)cc2ncnc(Nc3ccc(F)cc3O[C@H]3CC[C@H](O)CC3)c2c1C [Example 2.58] |

From US10167296B2, “Sulfoximine substituted quinazolines for pharmaceutical compositions” (EVOTEC INTERNATIONAL GMBH, priority 2014, dated 2019)
